Seven compounds from ChEMBL document CHEMBL1201862, “PubChem BioAssay data set” (2004) can be followed below.

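Values below derive from 48-hour exposures of cells grown in 96-well plates, with endpoints linearly interpolated between the two concentrations bracketing the appropriate inhibition level. At the GI50, growth is halved.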 The source made the active and inactive calls. Cut-off read from the data, not from the text of the source: active = GI50 up to about 1.1 µM and inactive = higher.

What all share (assay): NCI-60 cell line screen, 48 h
For assay [1], the system named is MCF7.
Assay [2] relates to HCT-15.
For assay [3], the system named is A549.
Assay [4] has as its system NCI-H460.
The test system of assay [5] is MDA-MB-435.
For assay [6], the system named is OVCAR-5.
In assay [7] the test system is NCI-H226.
The subject of assay [8] is HOP-62.
In assay [9] the test system is A498.
Assay [10] has as its system LOX IMVI.
In assay [11] the test system is NCI-H522.
The subject of assay [12] is HCT-116.
The subject of assay [13] is UO-31.
The subject of assay [14] is K562.
Assay [15] has as its system 786-0.
Assay [16] has as its system EKVX.
The test system of assay [17] is SF-268.
The subject of assay [18] is SF-295.
The subject of assay [19] is HOP-92.
Assay [20] has as its system SNB-75.

In the case of `CC(=O)O[C@@H]1C=C(C)[C@H](CBr)O[C@@]2(C)CC[C@H](Br)C(C)(C)[C@H]12`, the GI50 in assay [1] is > 100 µM (inactive); in assay [2], over 100 µM; in assay [3] it was > 100 µM (inactive); in [4], > 100 µM (inactive); in assay [5] it was > 100 µM (inactive); in [6], > 100 µM (inactive). The GI50 in assay [7] was > 100 µM (inactive); in [8], > 100 µM (inactive); in [9] it was > 100 µM (inactive); in [10] it was > 100 µM (inactive); in assay [11], 38.2 µM (inactive); in assay [12] it was > 100 µM (inactive). For the same compound, the GI50 in [13] is > 100 µM (inactive); in assay [14] it was 25.3 µM (inactive); in assay [15] it was > 100 µM (inactive); in assay [16] it was > 100 µM (inactive); in assay [17], > 100 µM (inactive); in [18], > 100 µM (inactive). Also, the GI50 in assay [19] and in assay [20] was > 100 µM (inactive) throughout.

`COc1cc(N(C)C)ccc1C=c1c2ccccc2n2c1cc(-c1ccccc1)[n+]2C`: the GI50 in [1] was 0.302 µM (active); in assay [2], 0.979 µM; in assay [3] it was 0.197 µM (active); in assay [4], 0.294 µM (active); in assay [5] it was 0.358 µM (active); in [6], 0.566 µM (active). The GI50 in [7] was 0.518 µM (active); in assay [8], 0.275 µM (active); in [9], 1.65 µM (inactive); in assay [10] it was 0.308 µM (active); in [11], 0.169 µM (active); in assay [12] it was 0.175 µM (active). For the same compound, the GI50 in assay [13] is 0.493 µM (active); in assay [14] it was 0.177 µM (active); in assay [15], 0.197 µM (active); in assay [16] it was 0.575 µM (active); in assay [17], 0.495 µM (active); in assay [18], 0.336 µM (active). Besides, the GI50 in assay [19] is 0.319 µM (active); in assay [20] it was 0.33 µM (active).

Consider `CC(=O)Oc1ccc(/C=C/C(=O)OCCOC(=O)/C=C/c2ccc(OC(C)=O)c(OC(C)=O)c2)cc1OC(C)=O`, for which the GI50 in [1] is 9.64 µM (inactive); in [2] it was 4.75 µM; in assay [3] it was 16.1 µM (inactive); in assay [4], 11.9 µM (inactive); in assay [5] it was 6.55 µM (inactive); in [6], 14.6 µM (inactive). For the same compound, the GI50 is 14.9 µM (inactive) in [7]; 1.26 µM (inactive) in [8]; 22 µM (inactive) in assay [9]; 4.59 µM (inactive) in assay [10]; 2.93 µM (inactive) in [11]; 4.66 µM (inactive) in assay [12]. The GI50 in assay [13] is 4.01 µM (inactive); in [14], 4.89 µM (inactive); in assay [15], 5.06 µM (inactive); in [16], 14.8 µM (inactive); in [17], 8.43 µM (inactive); in [18] it was 8.97 µM (inactive). Further, the GI50 in [19] was 5.77 µM (inactive); in assay [20], 4.23 µM (inactive).

Regarding `COc1cc([C@H]2c3cc4c(cc3O[C@@]3(O)COC(=O)[C@@H]23)OCO4)cc(OC)c1OC`, the GI50 is > 100 µM (inactive) in assay [1]; over 100 µM in assay [2]; > 100 µM (inactive) in assay [3]; > 100 µM (inactive) in assay [4]; > 100 µM (inactive) in assay [5]; > 100 µM (inactive) in assay [6]. Further, the GI50 in assay [7], in [8], in assay [9], in [10], in assay [11] and in assay [12] was > 100 µM (inactive) throughout. Also, the GI50 in assay [13], in assay [14], in assay [15], in [16], in assay [17] and in [18] was > 100 µM (inactive) each time. In addition, the GI50 in assay [19] and in [20] was > 100 µM (inactive) in each case.

Consider `CCOP(=O)(C=C=C1CCC2[C@@H]3CCc4cc(OC)ccc4C3CC[C@]12C)OCC` (stereo not given in full), for which the GI50 in assay [1] was 6.14 µM (inactive); in [2] it was 10.9 µM; in assay [3], 4.07 µM (inactive); in assay [4], 7.82 µM (inactive); in assay [5], 12.4 µM (inactive); in assay [6], 17 µM (inactive). Further, the GI50 in [7] was 5.43 µM (inactive); in assay [8], 15.3 µM (inactive); in [9], 12 µM (inactive); in assay [10], 9.06 µM (inactive); in assay [11] it was 4.16 µM (inactive); in assay [12], 5.22 µM (inactive). The GI50 was < 0.01 µM (active) in assay [13]; 0.348 µM (active) in assay [14]; 12.3 µM (inactive) in [15]; 10 µM (inactive) in assay [16]; 11.9 µM (inactive) in assay [17]; 5.6 µM (inactive) in assay [18]. The figures for the GI50 in [19] and in assay [20] were 10.1 µM (inactive) and 12.7 µM (inactive), respectively.

Turning to `CCCCCC1=CC(=O)C1(Cl)Cl`, the GI50 was 8.11 µM (inactive) in [1]; 12.6 µM in assay [2]; 23.5 µM (inactive) in assay [3]; 19.6 µM (inactive) in [4]; 11.1 µM (inactive) in [5]; 15.4 µM (inactive) in [6]. The GI50 in [7] is 15.3 µM (inactive); in assay [8], 21.4 µM (inactive); in assay [9], 20.4 µM (inactive); in assay [10], 6.52 µM (inactive); in assay [11] it was 5.24 µM (inactive); in [12] it was 11.9 µM (inactive). The GI50 is 15.4 µM (inactive) in assay [13]; 4.68 µM (inactive) in [14]; 13.9 µM (inactive) in assay [15]; 20.1 µM (inactive) in assay [16]; 14.7 µM (inactive) in [17]; 18.9 µM (inactive) in assay [18]. The GI50 is 13.4 µM (inactive) in [19] and 11.1 µM (inactive) in assay [20].

Take `N=C(N)Nc1ccc(-c2ccc(NC(=N)N)cc2)cc1`: the GI50 in [1] is 39.2 µM (inactive); in assay [2] it was 49.5 µM; in assay [3], 6.03 µM (inactive); in assay [4], 17.1 µM (inactive); in assay [5], 55 µM (inactive); in assay [6] it was 11.9 µM (inactive). In addition, the GI50 in assay [7] is 15.7 µM (inactive); in assay [8] it was 16.7 µM (inactive); in [9], 6.95 µM (inactive); in assay [10], 50.8 µM (inactive); in [11], 32.2 µM (inactive); in [12] it was 28.8 µM (inactive). Further, the GI50 was 46.1 µM (inactive) in assay [13]; 35.4 µM (inactive) in assay [14]; 24 µM (inactive) in assay [15]; 40.3 µM (inactive) in assay [16]; 37.3 µM (inactive) in assay [17]; 17.8 µM (inactive) in [18]. The GI50 in assay [19] was 45 µM (inactive); in assay [20], 9.12 µM (inactive).
